Laboratory results as given in patent US11236055B2 (Venenum Biodesign, LLC, priority 2016, dated 2022).

Tests used:
human TGR5 receptor = target: T1, human TGR5 receptor (Homo sapiens, UniProt Q8TDU6); assay: Human TGR5 cAMP production assay; type: cell-based; details: human TGR5, luminescent cAMP assay; coded A-D; read-out: Human TGR5 Lum. cAMP Activity (EC50)
T1 construct: host or cells: CHO-K1 (hTGR5-CHO cells)
T1 sequence (Q8TDU6 1-330): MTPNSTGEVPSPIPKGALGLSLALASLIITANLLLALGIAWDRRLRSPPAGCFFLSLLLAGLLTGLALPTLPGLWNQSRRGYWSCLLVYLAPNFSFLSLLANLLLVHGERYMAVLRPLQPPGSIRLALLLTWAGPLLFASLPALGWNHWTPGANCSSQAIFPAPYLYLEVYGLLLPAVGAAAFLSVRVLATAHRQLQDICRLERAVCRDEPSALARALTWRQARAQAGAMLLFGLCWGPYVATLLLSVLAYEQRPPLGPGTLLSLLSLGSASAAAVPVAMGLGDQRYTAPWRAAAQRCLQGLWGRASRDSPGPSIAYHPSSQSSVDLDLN
In short: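 Intracellular cAMP read by luminescent enzyme-complementation (XS+) after overnight development, following 1 h room-temperature compound treatment of hTGR5-CHO-K1 cells in IBMX plus anti-cAMP antibody. Compounds tested as half-log dilution series; EC50 derived.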

mouse TGR5 receptor = target: T2, mouse TGR5 receptor (Mus musculus, UniProt Q80SS6); assay: Mouse TGR5 cAMP production assay (luminescent, DiscoveRx cAMP XS+); type: cell-based; details: HEK293-EBNA cells overexpressing mouse TGR5, luminescent cAMP XS+; coded A-D; read-out: Mouse TGR5 Lum. cAMP Activity (EC50)
T2 construct: expressed in transfected cells; host or cells: HEK293-EBNA (293 c18, ATCC CRL10852), Hygromycin B selection
T2 sequence (Q80SS6 1-329): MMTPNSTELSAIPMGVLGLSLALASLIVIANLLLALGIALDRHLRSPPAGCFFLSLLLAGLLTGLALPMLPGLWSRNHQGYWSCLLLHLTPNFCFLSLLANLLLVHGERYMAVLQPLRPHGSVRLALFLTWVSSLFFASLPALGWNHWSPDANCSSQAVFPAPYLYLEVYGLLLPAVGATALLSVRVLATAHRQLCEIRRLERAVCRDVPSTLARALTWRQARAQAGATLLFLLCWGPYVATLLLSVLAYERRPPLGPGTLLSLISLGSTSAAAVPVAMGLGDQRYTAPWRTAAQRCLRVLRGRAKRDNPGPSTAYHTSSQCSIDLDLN
Description: Mouse TGR5 cAMP Production Assay
We evaluated compounds of the present invention for their ability to induce cAMP production in HEK-EBNA cells overexpressing the mouse TGR5 receptor. Human embryonic kidney cells (HEK293-EBNA) stably expressing mouse TGR5 receptor were established using the following procedure. Specifically, a commercially-obtained gene encoding mouse TGR5 (accession number BC116914) from Thermo Scientific (Waltham, Mass.) was cloned into an episomal expression vector. The resulting expression plasmid was then transfected into 293 c18 (ATCC® CRL10852™) cells, which express the Epstein-Barr virus nuclear antigen EBNA1 and can support the replication of episomal vectors. Selection for the plasmid was maintained with Hygromycin B. Cells were cultured and maintained in DMEM (Sigma; cat #6429) supplemented with 10% Fetal Bovine Serum, 1% penicillin/streptomycin, 2 mM L-alanine L-glutamine (GlutaMax), and 250 μg/mL Hygromycin.
Two cAMP production assays were developed.
1. Luminescent cAMP Production Assay
In this first cAMP production assay, the cAMP production was measured using DiscoveRx's cAMP XS+ kit following the manufacturer's recommended protocol.
Briefly, HEK293-EBNA cells stably overexpressing mouse TGR5 were harvested using non-enzymatic cell dissociation buffer (Sigma-Aldrich, St. Louis, Mo.), spun down, then resuspended in serum-free DMEM with 500 μM IBMX at a density of 1.25×10^6 cells/mL. 500 μL of cAMP antibody solution was added to […] of cell suspension and incubated at room temperature for 20 min.
Test compounds were serially diluted (half-log dilutions) in DMSO and then further diluted 1:50 in PBS, 10 mM HEPES buffer. 2 μL of serially diluted compound was added to a 384-well low volume plate (Greiner cat #784075) and centrifuged briefly. 2 μL of the cell/cAMP antibody mixture was then added to each compound-containing well and allowed to incubate at room temperature for one (1) hour. Following incubation, the XS+ kits' ED/Lysis/CL Substrate Working Solution was prepared following the manufacturer's recommended protocol and 4 μL was added to each well of the plate. The plate was then incubated for one (1) hour at room temperature. Following incubation, 4 μL of (Enzyme Acceptor) EA reagent was added to the plate and allowed to incubate overnight at room temperature. Luminescent signal was then detected using the Viewlux instrument (Perkin-Elmer, Waltham, Mass.).
In Table 33, EC50 values for both human and mouse cells were determined according to the TGR5 cAMP assays described above.

Row | EC50 (human TGR5 receptor) | EC50 (mouse TGR5 receptor) | SMILES
1 | < 0.1 µM | 1 to 30 µM | CC(C)(NS(=O)(=O)c1cccc(C(F)(F)F)c1)c1cccc(-c2ccncc2F)c1 [Compound 1AE]
2 | < 0.1 µM | 0.1 to 0.999 µM | COc1cnccc1-c1cccc(C(C)(C)NS(=O)(=O)c2cccc(C(F)(F)F)c2)c1 [Compound 1AI]
3 | 0.1 to 0.999 µM | 1 to 30 µM | Cc1cc(-c2cccc(C(C)(C)NS(=O)(=O)c3cccc(C(F)(F)F)c3)c2)ccn1 [Compound 1AK]
4 | < 0.1 µM | 0.1 to 0.999 µM | CC(C)(NS(=O)(=O)c1ccccc1C(F)(F)F)c1cccc(-c2ccncc2O)c1 [Compound 1BM]
5 | 1 to 30 µM | > 30 µM | O=S(=O)(NCc1cccc(-c2ccncn2)c1)c1cccc(C(F)(F)F)c1 [Compound 1BK]
6 | 0.1 to 0.999 µM | 0.1 to 0.999 µM | C[C@H](NS(=O)(=O)c1ccccc1[N+](=O)[O-])c1cccc(-c2ccncc2Cl)c1 [Compound 2BS]
7 | < 0.1 µM | 1 to 30 µM | COc1cnccc1-c1cccc([C@H](C)NS(=O)(=O)c2cccc(C(F)(F)F)c2)c1 [Compound 1AZ]
8 | 0.1 to 0.999 µM | > 30 µM | O=S(=O)(NCc1cccc(-c2ccncc2)c1)c1cccc(Br)c1 [Compound 2AQ]
9 | 1 to 30 µM | 1 to 30 µM | O=[N+]([O-])c1cccc(S(=O)(=O)NCc2cccc(-c3ccncc3)c2)c1 [Compound 2AN]
10 | 1 to 30 µM | > 30 µM | Cc1noc(C)c1-c1cccc(CNS(=O)(=O)c2cc(F)cc(C(F)(F)F)c2)c1 [Compound 2AG]
11 | 0.1 to 0.999 µM | 1 to 30 µM | O=S(=O)(NCc1cccc(-c2ccncc2)c1)c1cccc(C(F)(F)F)c1 [Compound 1AR]
12 | 1 to 30 µM | 1 to 30 µM | Cc1noc(C)c1-c1cccc(C(C)(C)NS(=O)(=O)c2cccc(C(F)(F)F)c2)c1 [Compound 1AC]
13 | 1 to 30 µM | 1 to 30 µM | COc1cnccc1-c1cccc(CNS(=O)(=O)c2cccc(C(F)(F)F)c2)n1 [Compound 1BQ]
14 | 0.1 to 0.999 µM | 0.1 to 0.999 µM | CC(C)(NS(=O)(=O)c1cccc(C(F)(F)F)c1)c1cccc(-c2ccncc2Cl)c1 [Compound 1AF]
15 | 1 to 30 µM | 1 to 30 µM | Cc1cncc(F)c1-c1cccc(C(C)(C)NS(=O)(=O)c2cccc(C(F)(F)F)c2)c1 [Compound 1AO]
16 | < 0.1 µM | 0.1 to 0.999 µM | CCOc1cnccc1-c1cccc(C(C)(C)NS(=O)(=O)c2cccc(C(F)(F)F)c2)c1 [Compound 8AB, N-(2-(3-(3-ethoxypyridin-4-yl)phenyl)propan-2-yl)-3-(trifluoromethyl)benzenesulfonamide]
17 | < 0.1 µM | 0.1 to 0.999 µM | C[C@H](NS(=O)(=O)c1ccccc1C(F)(F)F)c1cccc(-c2ccncc2Cl)c1 [Compound 2BT]
18 | 1 to 30 µM | 1 to 30 µM | Cc1noc(C)c1-c1cccc(CNS(=O)(=O)c2cccc(C(F)(F)F)c2)c1 [Compound 1, N-(3-(3,5-dimethylisoxazol-4-yl)benzyl)-3-(trifluoromethyl)benzenesulfonamide]
19 | 0.1 to 0.999 µM | 0.1 to 0.999 µM | COc1cnccc1-c1cccc(C2(NS(=O)(=O)c3cccc(C(F)(F)F)c3)CC2)c1 [Compound 1BN]
20 | 1 to 30 µM | > 30 µM | Cc1noc(C)c1-c1cccc(CNS(=O)(=O)c2ccc(C(F)(F)F)cc2)c1 [Compound 1AA]
21 | 1 to 30 µM | > 30 µM | Cc1noc(C)c1-c1cccc(CNS(=O)(=O)c2ccc(Cl)c(C(F)(F)F)c2)c1 [Compound 2AD]

Row | EC50 (human TGR5 receptor) | EC50 (mouse TGR5 receptor) | SMILES
22 | 1 to 30 µM | 1 to 30 µM | O=[N+]([O-])c1ccccc1S(=O)(=O)NCc1cccc(-c2ccncc2)c1 [Compound 2AO]
23 | 0.1 to 0.999 µM | 1 to 30 µM | Nc1cnccc1-c1cccc(CNS(=O)(=O)c2cccc(C(F)(F)F)c2)c1 [Compound 1BG]
24 | 1 to 30 µM | > 30 µM | Cc1ccc(C(C)(C)NS(=O)(=O)c2cccc(C(F)(F)F)c2)cc1-c1ccncc1 [Compound 1BW]
25 | 1 to 30 µM | > 30 µM | O=S(=O)(NCc1cc(Cl)cc(-c2ccncc2)c1)c1cccc(C(F)(F)F)c1 [Compound 1BV]
26 | 0.1 to 0.999 µM | 1 to 30 µM | COc1cnccc1-c1cccc([C@H](C)NS(=O)(=O)c2cccc(Br)c2)c1 [Compound 2BO]
27 | 0.1 to 0.999 µM | 1 to 30 µM | O=S(=O)(NCc1cccc(-c2ccncc2Cl)c1)c1cccc(C(F)(F)F)c1 [Compound 1AQ]
28 | 0.1 to 0.999 µM | 1 to 30 µM | CCC(NS(=O)(=O)c1cccc(C(F)(F)F)c1)c1cccc(-c2ccncc2)c1 (stereo not shown) [Compound 1BZ]
29 | 1 to 30 µM | > 30 µM | Cc1noc(C)c1-c1cccc(CNS(=O)(=O)c2cc(C(F)(F)F)ccc2F)c1 [Compound 2AF]
30 | 0.1 to 0.999 µM | 1 to 30 µM | C[C@H](NS(=O)(=O)c1cccc(C(F)(F)F)c1)c1cccc(-c2ccncc2)c1 [Compound 1AW]
31 | 1 to 30 µM | 1 to 30 µM | O=S(=O)(NCc1cc(-c2ccncc2Cl)ccc1F)c1cccc(C(F)(F)F)c1 [Compound 1AV]
32 | 0.1 to 0.999 µM | 1 to 30 µM | CC(C)(NS(=O)(=O)c1cccc(C(F)(F)F)c1)c1cccc(-c2ccnc(N)c2)c1 [Compound 1AL]
33 | 1 to 30 µM | 1 to 30 µM | COc1cnccc1-c1ccnc(CNS(=O)(=O)c2cccc(C(F)(F)F)c2)c1 [Compound 1BR]
34 | 0.1 to 0.999 µM | 1 to 30 µM | O=S(=O)(NCc1cccc(-c2ccncc2F)c1)c1cccc(C(F)(F)F)c1 [Compound 1AP]
35 | 0.1 to 0.999 µM | 0.1 to 0.999 µM | CCC(NS(=O)(=O)c1cccc(C(F)(F)F)c1)c1cccc(-c2ccncc2C)c1 (racemic) [Compound 5AU, (+/−)N-(1-(3-(3-methylpyridin-4-yl)phenyl)propyl)-3-(trifluoromethyl)benzenesulfonamide]
36 | 0.1 to 0.999 µM | 0.1 to 0.999 µM | C[C@@H](NS(=O)(=O)c1cccc(C(F)(F)F)c1)c1cccc(-c2ccncc2Cl)c1 [Compound 1BC]
37 | 1 to 30 µM | > 30 µM | O=S(=O)(NCc1cccc(-c2ccncc2)c1)c1cccc(F)c1 [Compound 2AK]
38 | 0.1 to 0.999 µM | 0.1 to 0.999 µM | COc1cnccc1-c1cccc(C(C)(C)NS(=O)(=O)c2cc(Br)cc(C(F)(F)F)c2)c1 [Compound 2BB]
39 | 1 to 30 µM | 1 to 30 µM | Cc1cccc(S(=O)(=O)NCc2cccc(-c3c(C)noc3C)c2)c1 [Compound 2, N-(3-(3,5-dimethylisoxazol-4-yl)benzyl)-3-methylbenzenesulfonamide]
40 | 1 to 30 µM | > 30 µM | O=S(=O)(NCc1cccc(-c2ccncc2)c1)c1ccccc1Cl [Compound 2AR]
41 | 0.1 to 0.999 µM | 0.1 to 0.999 µM | CC(C)Oc1cnccc1-c1cccc(C(C)(C)NS(=O)(=O)c2cccc(C(F)(F)F)c2)c1 [Compound 8AA, N-(2-(3-(3-isopropoxypyridin-4-yl)phenyl)propan-2-yl)-3-(trifluoromethyl)benzenesulfonamide]
